Read-outs that look alike come from different tables or passages of the source.
What was measured:
[1] = test system: serum C-telopeptide of type I collagen (sCTX); experiment: Simulation of sCTX inhibition from plasma ONO-5334 concentrations with sigmoidal Emax model; set-up: species or system human
Source text: PK data from the MAD study and the relationship between plasma ONO-5334 levels and sCTX inhibition in healthy postmenopausal women obtained from the PKPD study were used in simulation of the antiresorptive effect of ONO-5334 [29, 31]. Our previous PK data for 14 days after repeated administration were also used in the simulation. sCTX inhibition for doses and regimens in the OCEAN study were simulated using plasma ONO-5334 levels and the sigmoidal Emax model in the PKPD study (Fig. 1). The sigmoidal Emax model was fitted to data using log-transformed ONO-5334 plasma concentrations and effects on sCTX inhibition, using the following equation [32]. Effect=E0+Emax×C^r/EC50r+C^r

[2] = set-up: method as in earlier work; conditions: at morning on 12 month in the OCEAN study, full analysis set, cited from earlier work
[3] = test system: postmenopausal women with osteoporosis or osteopenia; experiment: BMD increase (DXA) in the OCEAN study and linear regression against mean sCTX inhibition over 24 h; assay type: in vivo, human; conditions: at 1 year
Protocol: PK data at 50 mg BID, 100 mg QD and 300 mg QD were used from the 15-day multiple-dosing cohort in a phase 1 study of ONO-5334 IR tablets (MAD study, n = 96). The MAD study was a randomized, double-blind, single-center study conducted at the Kendle Clinical Pharmacology Unit, Utrecht, The Netherlands, from April to November 2006 (EudraCT: not applicable). The sigmoidal relationship (Emax model) between plasma ONO-5334 concentrations and sCTX inhibition was taken from a study using SR tablets of ONO-5334 (PKPD study, n = 10). The PKPD study was a phase 1, 2-part (4- and 2-way crossover), open-label, randomized trial conducted at Pharmaceutical Profiles, Ruddington, Nottingham, United Kingdom, from January 2008 to April 2008 (European Union Clinical Trials Register [EudraCT]: 2007–005206-47). Data for sCTX inhibition and increase in BMD after 1 year of treatment were taken from the OCEAN study (n = 285). […]
The relationship of sCTX inhibition for 24 h and the mean increase in BMD for the lumbar spine (L1-L4) and total hip after 1 year of treatment in the OCEAN study were analyzed. BMD in the OCEAN study was measured using dual-energy X-ray absorptiometry (DXA) (Prodigy, GE Lunar, Madison, WI, USA). […]

[4] = test system: postmenopausal women with osteoporosis or osteopenia; set-up: method as in PMID 21312264, PMID 23873670; conditions: 300 mg QD, OCEAN study; cited from earlier work
[5] = test system: postmenopausal women with osteoporosis or osteopenia; set-up: method as in PMID 21312264, PMID 23873670; conditions: OCEAN study, cited from earlier work
[6] = cited from earlier work
[7] = test system: serum C-telopeptide of type I collagen (sCTX); set-up: method as in PMID 26188109; conditions: PKPD study, SR tablets, cited from earlier work
Solubility of ONO-5334 = assay type: physicochemical; conditions: at acidic pH
[8] = at 12 h after administration in MAD study, cited from earlier work

- Cmax relative to the concentration required for 99% Emax ([1]; 50 mg BID): 4 times
- Cmax relative to the concentration required for 99% Emax ([1]; 100 mg QD): 14 times
- Cmax relative to the concentration required for 99% Emax ([1]; 300 mg QD): 56 times
- solubility (Solubility of ONO-5334): high
Structure (SMILES): C[C@@H]1CS/C(=N\NC(=O)C(=O)[C@@H](NC(=O)C2CCCCCC2)C2CCOCC2)N1C [ONO-5334]
- Plasma ONO-5334 concentration (Mean ± SD) ([2]; 50 mg BID): 2.51 ± 1.60 ng/mL
- Plasma ONO-5334 concentration (Mean ± SD) ([2]; 100 mg QD): 4.51 ± 3.26 ng/mL
- Plasma ONO-5334 concentration (Mean ± SD) ([2]; 300 mg QD): 14.4 ± 10.6 ng/mL
- maximum BMD increase (100% Emax for 24 h) calculated by linear regression ([3]; lumbar spine): 4.85%
- maximum BMD increase (100% Emax for 24 h) calculated by linear regression ([3]; total hip): 3.05%
- safety [4]: no safety concerns
- effect on BMD ([5]; 50 mg BID and 300 mg QD): increased BMD at all measured sites
- efficacy for increasing BMD compared to 50 mg BID and 300 mg QD ([5]; 100 mg QD): less efficacy
- PK parameters, Cmax and AUC, postprandial administration compared with a fasted state [6]: do not differ significantly
- time for trough plasma ONO-5334 level to reach steady state ([6]; repeated administration, after the first administration, earlier phase I studies): 2 days
- effect span (Emax) of sigmoidal Emax model for sCTX [7]: −54.0%
- half-maximal effective concentration of ONO-5334 (EC50) for sCTX inhibition ([7]; plasma concentration): 2.07 ng/mL
- Plasma ONO-5334 concentration (Mean ± SD) ([8]; 50 mg BID): 1.82 ± 0.33 ng/mL
- Plasma ONO-5334 concentration (Mean ± SD) ([8]; 100 mg QD): 2.74 ± 0.99 ng/mL
- Plasma ONO-5334 concentration (Mean ± SD) ([8]; 300 mg QD): 14.5 ± 6.33 ng/mL
